# Assay results as given in the supplement of paper PMC11061612.
# Legend:
# Experiment in all cases: Bliss excess, mean over the matrix (fraction); higher = more synergy
# [1] = test system: 639-V (Bladder Carcinoma)
# Procedure, shortened: (§1)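 Bliss excess equals the observed combination effect minus the expected value EA + EB − EA·EB, where EA and EB are the effects of each agent alone. Combination Emax is the second-highest inhibition within the matrix. Inhibition was scaled from CellTiter-Glo 2.0 luminescence, with 0 set by vehicle wells and 1 by blank wells, after 72 hours of two-drug dosing of cells plated in 1536-well plates.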
# [2] = test system: HARA (Squamous Cell Lung Carcinoma)
# Procedure, shortened: as §1
# [3] = test system: HCC-15 (Squamous Cell Lung Carcinoma)
# Procedure, shortened: as §1
# [4] = test system: HDLM-2 (Hodgkin's Lymphoma)
# Procedure, shortened: as §1
# HMV-II (Melanoma) = test system: HMV-II (Melanoma)
# Procedure, shortened: as §1
# [5] = test system: Hs-633T (Other Solid Carcinomas)
# Procedure, shortened: as §1
# [6] = test system: K5 (Thyroid Gland Carcinoma)
# Procedure, shortened: as §1
# [7] = test system: LoVo (Colorectal Carcinoma)
# Procedure, shortened: as §1
# [8] = test system: MHH-PREB-1 (B-Cell Non-Hodgkin's Lymphoma)
# Procedure, shortened: as §1
# Mewo (Melanoma) = test system: Mewo (Melanoma)
# Procedure, shortened: as §1
# NB14 (Neuroblastoma) = test system: NB14 (Neuroblastoma)
# Procedure, shortened: as §1
# NCI-H2461 (Mesothelioma) = test system: NCI-H2461 (Mesothelioma)
# Procedure, shortened: as §1
# NCI-H28 (Mesothelioma) = test system: NCI-H28 (Mesothelioma)
# Procedure, shortened: as §1
# [9] = test system: RKO (Colorectal Carcinoma)
# Procedure, shortened: as §1
# [10] = test system: RT-112 (Bladder Carcinoma)
# Procedure, shortened: as §1
# [11] = test system: SU-DHL-6 (B-Cell Non-Hodgkin's Lymphoma)
# Procedure, shortened: as §1
# [12] = test system: SUP-T1 (T-Lymphoblastic Leukemia)
# Procedure, shortened: as §1
# [13] = test system: SW1116 (Colorectal Carcinoma)
# Procedure, shortened: as §1
# [14] = test system: TE-4 (Esophageal Squamous Cell Carcinoma)
# Procedure, shortened: as §1
# [15] = test system: UMC-11 (Other Solid Carcinomas)
# Procedure, shortened: as §1
SMILES,Bliss excess [1],Bliss excess [2],Bliss excess [3],Bliss excess [4],Bliss excess (HMV-II (Melanoma)),Bliss excess [5],Bliss excess [6],Bliss excess [7],Bliss excess [8],Bliss excess (Mewo (Melanoma)),Bliss excess (NB14 (Neuroblastoma)),Bliss excess (NCI-H2461 (Mesothelioma)),Bliss excess (NCI-H28 (Mesothelioma)),Bliss excess [9],Bliss excess [10],Bliss excess [11],Bliss excess [12],Bliss excess [13],Bliss excess [14],Bliss excess [15]
"COc1nnc2ccc(N3CCC(c4ccc(OCCN5CCN(C)C(=O)[C@H]5C)cc4)CC3)nn12 [AZD5153] + C[C@@H]1COCCN1C2=NC(=NC(=C2)C3(CC3)[S@](=N)(=O)C)C4=C5C=CNC5=NC=C4 [AZD6738] (first compound max 1 µM, 7x7, partner max 10 µM)",0.0933,-0.0012,0.069,-0.0567,0.0169,0.0037,-0.0057,0.0603,0.0605,-0.007,-0.043,-0.0571,0.0141,-0.0442,0.0298,-0.0505,-0.0445,-0.0165,0.0983,0.0169
"NC1(C(=O)N[C@@H](CCO)c2ccc(Cl)cc2)CCN(c2ncnc3[nH]ccc23)CC1 [Capivasertib] + COc1nnc2ccc(N3CCC(c4ccc(OCCN5CCN(C)C(=O)[C@H]5C)cc4)CC3)nn12 [AZD5153] (first compound max 10 µM, 7x7, partner max 1 µM)",0.0409,-0.0019,0.009,-0.0507,0.014,0.0419,0.0159,0.042,-0.0154,-0.0532,-0.0216,-0.0007,-0.062,0.0048,0.0334,-0.0424,-0.0296,-0.0236,0.0684,0.0063
"COc1cc2c(cc1OCCCCCOc1cc3c(cc1OC)C(=O)N1C=C(C)C[C@H]1C=N3)N=C[C@@H]1CC(C)=CN1C2=O [SG3199] + O=C(c1cc(Cc2n[nH]c(=O)c3ccccc23)ccc1F)N1CCN(C(=O)C2CC2)CC1 [Olaparib] (first compound max 0.001 µM, 7x7, partner max 10 µM)",-0.0289,-0.0066,-0.0166,-0.0444,-0.0524,-0.0312,-0.0105,-0.0455,-0.0025,-0.0489,-0.0283,-0.0652,-0.0556,-0.0131,-0.0227,0.0075,-0.0478,-0.0356,-0.0319,0.0084
"COc1cccc(OCCCN)c1-c1cc(Nc2cnc(C#N)cn2)n[nH]1 [Prexasertib] + C[C@@H]1COCCN1C2=NC(=NC(=C2)C3(CC3)[S@](=N)(=O)C)C4=C5C=CNC5=NC=C4 [AZD6738] (first compound max 1 µM, 7x7, partner max 10 µM)",0.0838,-0.0117,0.0058,-0.0669,0.0359,0.0095,0.0037,-0.0296,-0.0643,-0.0403,0.0092,-0.0344,-0.0062,-0.0176,0.0275,-0.0158,-0.0374,0.0637,0.0058,-0.0213
"Cc1c2c(nn1C)CSCc1cc(n(C)n1)CSc1cc(c3ccccc3c1)OCCCc1c(C(=O)O)n(C)c3c-2c(Cl)ccc13 [AZD5991] + Cc1cc2ncnn2cc1Nc1ncc2c(n1)n(C1CCOCC1)c(=O)n2C [AZD7648] (first compound max 1 µM, 7x7, partner max 10 µM)",-0.005,0.045,-0.0436,0.0007,-0.067,-0.0097,-0.0537,-0.0356,-0.0029,-0.0211,-0.0505,-0.0516,-0.0051,-0.0301,-0.0298,0.0224,0.0115,-0.0466,-0.025,-0.0716
"Cn1cnc2c(F)c(Nc3ccc(Br)cc3Cl)c(C(=O)NOCCO)cc21 [Selumetinib] + CC(C)n1c(=O)n(C)c2cnc3cc(F)c(-c4ccc(OCCCN5CCCCC5)nc4)cc3c21 [AZD1390] (first compound max 10 µM, 7x7, partner max 0.3 µM)",-0.0783,-0.0159,0.0148,-0.0509,-0.0262,0.0303,-0.021,-0.0325,-0.0218,-0.0086,0.0021,-0.0377,-0.0403,-0.0273,-0.0217,-0.0323,-0.0481,-0.0094,-0.0461,-0.0422
"CN(CCO)CC[C@H](CSc1ccccc1)Nc1ccc(S(=O)(=O)NC(=O)c2ccc(N3CCC([C@@H](O)c4ccccc4-c4ccc(Cl)cc4)CC3)cc2)cc1S(=O)(=O)C(F)(F)F [AZD4320] + C=CCn1c(=O)c2cnc(Nc3ccc(N4CCN(C)CC4)cc3)nc2n1-c1cccc(C(C)(C)O)n1 [AZD1775] (first compound max 1 µM, partner max 1 µM)",-0.0437,-0.0129,0.0202,0.106,0.0496,0.0672,0.0069,0.0093,-0.0454,0.0306,0.0415,0.016,0.0115,-0.0003,-0.0285,0.14,0.0212,0.0003,-0.0044,-0.0122
